Test results taken from US7700584B2 (Hangzhou Minsheng Pharmaceuticals Co., Ltd., priority 2004, dated 2010).
Where a name gives a salt, the structure may show the parent alone. Read-outs that look alike come from different tables or passages of the source.

Columns and labels:
Hepatitis B virus (HBV) = format: cell-based; conditions: for (Value of the positive control - Measured Value) Value of the positive control × 100% / OD450 of HBeAg: 200 μg/ml; for (Value of the positive control - Measured Value) Value of the positive control × 100%: decrease of HBeAg relative to positive control; for OD450 of HBeAg: supernatant four days after infection, positive control 1.917, negative 0.057
MDCK (dog kidney) cells = test: Toxicity TC50 of the samples in MDCK cells (influenza screening); conditions: concentration of 50% toxicity
[1] = tested on: MCF-7 human mammary adenocarcinoma; test: In vitro inhibition rate to tumor cells (MTT), MCF-7; format: cell-based; conditions: for inhibition rate, Results (%) MCF-7: 50 μg/ml; for inhibition at 50 µg/mL: Homo sapiens, MCF7, 50 μg/ml, read-out: inhibition rate, Results (%) MCF-7
293 cells = test: Cell status of 293 cells treated with sample alone (herpes virus screening); conditions: for Cytopathy and cell status, Sample: 24 hrs
[2] = tested on: mouse grafted uterine cervix cancer U14; test: Activity against mouse grafted uterine cervix cancer U14; format: in vivo, Kunming mice; conditions: for Tumor weight: X ± SD, n = 10; for inhibitory effect against mouse grafted uterine cervix cancer U14 (in words): all the three concentrations, i.v., female mice
Protocol: The experiments were performed according to “Guideline for New Drugs (Western medicines) in Pre-clinical Stages” issued by Bureau of Drug Policy & Administration of the People's Republic of China, and the relevant methods in “Methodology of Pharmaceutical Experiments”, Xu Shuyun et al. ed. 120 male Kunming mice weighting […] were allowed to grow 3 days. No abnormality was observed. The mice were routinely inoculated in oxter with mouse sarcoma S-180, and weighted 4 hrs. after inoculation. The mice were randomly divided into 12 groups, 10 mice/group. Group 1 was given 0.3 ml of physiological saline as negative control; Group 2 was given 5-FU as positive control, 0.6 mg/mouse; Group 3 was given hydroxycamptothecine as positive control, 0.02 mg/mouse. Groups 4, 5 and 6 were injected with 10% Compound 6, 0.4 ml/mouse, 0.2 ml/mouse, and 0.1 ml/mouse, respectively. Groups 7, 8 and 9 were injected with 10% Compound 8, 0.4 ml/mouse, 0.2 ml/mouse, and 0.1 ml/mouse, respectively. Groups 10, 11, and 12 were injected with 10% Compound 20, 0.4 ml/mouse, 0.2 ml/mouse, and 0.1 ml/mouse, respectively. The tested compounds were administered on the next day after inoculation, once a day on alternate days, 6 doses totally administered. On the next day after the end dose, the mice were weighed and sacrificed. After the tumor was excised, body weight and tumor weight were recorded. The tumor inhibition rate was calculated based on the following formula: [(average tumor weight of the control groups−average tumor weight of the experimental groups)/average tumor weight of the control groups]×100%. The data was processed statistically. The above experiments were repeated three times.
The experiments were identical with the experiments for activity against mouse grafted sarcoma S-180, except the following:
(1) the tumor cell line inoculated was mouse grafted uterine cervix cancer U14;
(2) all the mice were female.

[3] = biological target: T1, HIV-1 proteinase (HIV-1 PR) (Human immunodeficiency virus type 1 group M subtype B, UniProt P04585); test: Screening for in vitro activity against HIV-1 proteinase; format: biochemical; conditions: for inhibition at 0.08 µg/mL / inhibition at 0.4 µg/mL / inhibition at 2 µg/mL / inhibition at 10 µg/mL: read-out: Inhibition rate; for inhibition at 50 µg/mL: read-out: Inhibition rate, 50 μg/ml
T1 construct: HIV-1 proteinase digests the fluorescent-labeled substrate; purchased
Method in brief: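 Inhibition was scored from product fluorescence after the enzyme was added to buffer holding the labeled substrate and the test sample. Samples were five serial 5× dilutions in water from a DMSO solution. Indinavir served as the reference control; the enzyme was recombinant HIV-1 PR.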

HepG2 cells = test: Cell status of HepG2 cells treated with sample (HBV screening); format: cell-based; conditions: 200 μg/ml, HepG2, four days after infection
[4] = U14, first experiment, 10 mg/kg
[5] = U14, first experiment, 20 mg/kg
[6] = U14, first experiment, 40 mg/kg
[7] = U14, second experiment, 10 mg/kg
[8] = U14, second experiment, 20 mg/kg
[9] = U14, second experiment, 40 mg/kg
[10] = U14, third experiment, 10 mg/kg
[11] = U14, third experiment, 20 mg/kg
[12] = U14, third experiment, 40 mg/kg
[13] = IC50, five 5× serial dilutions from 50 μg/ml

## CC(C)C1CC23OC1(O)C/C(=C\Nc1ccc(O)cc1)C2CCC3C (centres unmarked) [Compound 6, Curcumol p-hydroxy aniline hydrochloride]
Hepatitis B virus (HBV)
  (Value of the positive control - Measured Value) Value of the positive control × 100%: 93.43%
  OD450 of HBeAg: 0.126
Hepatitis B virus (HBV); primary screening, HBV e antigen, HepG2, 13 samples
  activity against HBV (in words): had the activity against HBV
MDCK (dog kidney) cells
  TC50: 192.45 µg/mL
[1]; Table 1, hydrochloride
  inhibition rate, Results (%) MCF-7: 91.89%
[1]; Table 2 (repeated screening), hydrochloride
  inhibition rate, Results (%) MCF-7: 91.89%
[1]; Table 3 (repeated screening)
  inhibition at 50 µg/mL: 94.1%
293 cells; 200 μg/ml
  Cytopathy and cell status, Sample: Good
[2]; [4]
  Inhibition rate (%): 37.3%
  Tumor weight: 2.2 ± 0.37 g
[2]; [5]
  Inhibition rate (%): 65.0%
  Tumor weight: 1.23 ± 0.29 g
[2]; [6]
  Inhibition rate (%): 72.6%
  Tumor weight: 0.96 ± 0.31 g
[2]; [7]
  Inhibition rate (%): 32.3%
  Tumor weight: 2.3 ± 0.37 g
[2]; [8]
  Inhibition rate (%): 64.7%
  Tumor weight: 1.20 ± 0.29 g
[2]; [9]
  Inhibition rate (%): 73.5%
  Tumor weight: 0.90 ± 0.31 g
[2]; [10]
  Inhibition rate (%): 35.9%
  Tumor weight: 2.32 ± 0.37 g
[2]; [11]
  Inhibition rate (%): 63.5%
  Tumor weight: 1.32 ± 0.29 g
[2]; [12]
  Inhibition rate (%): 72.1%
  Tumor weight: 1.01 ± 0.31 g
[2]
  inhibitory effect against mouse grafted uterine cervix cancer U14 (in words): good inhibitory effect
[2]; mouse, in vivo, 10 mg/kg
  Average weight (g)-after administration: 22.1 g
[2]; mouse, in vivo, 20 mg/kg
  Average weight (g)-after administration: 21.6 g
[2]; mouse, in vivo, 40 mg/kg
  Average weight (g)-after administration: 21.6 g
[3]; 0.08 μg/ml, hydrochloride
  Inhibition rate: 0.89
[3]; 0.40 μg/ml, hydrochloride
  Inhibition rate: 1.7
[3]; 2.0 μg/ml, hydrochloride
  Inhibition rate: 2.99
[3]; 10 μg/ml, hydrochloride
  Inhibition rate: 13.15
[3]; 50 μg/ml, hydrochloride
  Inhibition rate: 7.07
[3]; five 5× serial dilutions from 50 μg/ml
  IC50: > 146 µM
HepG2 cells
  Cell status: Normal

## C=C1CC2(OS(=O)(=O)[O-])OC3(CC2C(C)C)C(C)CCC13.[Na+] (centres unmarked) [Compound 21, Curcumol sodium sulfonate]
Hepatitis B virus (HBV)
  (Value of the positive control - Measured Value) Value of the positive control × 100%: 92.85%
  OD450 of HBeAg: 0.137
MDCK (dog kidney) cells
  TC50: >1000 µg/mL
[1]; Table 1
  inhibition rate, Results (%) MCF-7: 87.56%
[1]; Table 2 (repeated screening)
  inhibition rate, Results (%) MCF-7: 85.23%
[1]; Table 3 (repeated screening)
  inhibition rate, Results (%) MCF-7: 87.58%
293 cells; 12.5 μg/ml
  cell status of 12 and 24 h: Good
293 cells; 25 μg/ml
  cell status of 12 and 24 h: Good
293 cells; 50 μg/ml
  cell status of 12 and 24 h: Good
293 cells; 100 μg/ml
  cell status of 12 and 24 h: Good
293 cells; 200 μg/ml
  cell status of 12 and 24 h: Normal
  Cytopathy and cell status, Sample: Normal
[2]; [4]
  Average weight(g)-after administration: 22.1 g
  Inhibition rate (%): 52.1%
  Tumor weight: 1.68 ± 0.29 g
[2]; [5]
  Average weight(g)-after administration: 21.0 g
  Inhibition rate (%): 56.7%
  Tumor weight: 1.52 ± 0.41 g
[2]; [6]
  Average weight(g)-after administration: 21.1 g
  Inhibition rate (%): 71.8%
  Tumor weight: 0.99 ± 0.31 g
[2]; [7]
  Average weight(g)-after administration: 22.5 g
  Inhibition rate (%): 53.2%
  Tumor weight: 1.59 ± 0.29 g
[2]; [8]
  Average weight(g)-after administration: 21.1 g
  Inhibition rate (%): 57.1%
  Tumor weight: 1.46 ± 0.41 g
[2]; [9]
  Average weight(g)-after administration: 21.0 g
  Inhibition rate (%): 73.8%
  Tumor weight: 0.89 ± 0.31 g
[2]; [10]
  Average weight (g)-after administration: 22.0 g
  Inhibition rate (%): 54.7%
  Tumor weight: 1.64 ± 0.29 g
[2]; [11]
  Average weight (g)-after administration: 21.0 g
  Inhibition rate (%): 58.3%
  Tumor weight: 1.51 ± 0.41 g
[2]; [12]
  Average weight (g)-after administration: 20.1 g
  Inhibition rate (%): 73.7%
  Tumor weight: 0.95 ± 0.31 g
[2]
  inhibitory effect against mouse grafted uterine cervix cancer U14 (in words): good inhibitory effect
[3]; 0.08 μg/ml
  Inhibition rate: 8.74
[3]; 0.40 μg/ml
  Inhibition rate: 14.77
[3]; 2.0 μg/ml
  Inhibition rate: 5.86
[3]; 10 μg/ml
  Inhibition rate: 10.16
[3]; 50 μg/ml
  Inhibition rate: 5.47
[3]; [13]
  IC50: > 148 µM

## C=C1CC2(OC(=O)C(C)C)OC3(CC2C(C)C)C(C)CCC13 (centres unmarked) [Compound 3, Curcumol isobutyrate]
Hepatitis B virus (HBV)
  (Value of the positive control - Measured Value) Value of the positive control × 100%: −36.1502%
  OD450 of HBeAg: 2.61
MDCK (dog kidney) cells; given as dilution of the stock solution
  TC50: 1/8403 of the stock solution
[1]; Table 1
  inhibition at 50 µg/mL: 32.1%
[1]; Table 2 (repeated screening)
  inhibition at 50 µg/mL: 22.4%
293 cells; 200 μg/ml
  Cytopathy and cell status, Sample: Normal
[3]; 0.08 μg/ml
  inhibition at 0.08 µg/mL: 4.98%
[3]; 0.40 μg/ml
  inhibition at 0.4 µg/mL: 13.5%
[3]; 2.0 μg/ml
  inhibition at 2 µg/mL: 9.64%
[3]; 10 μg/ml
  inhibition at 10 µg/mL: 12.1%
[3]; [13]
  IC50: > 163 µM
[3]
  inhibition at 50 µg/mL: 5.55%
HepG2 cells
  Cell status: Normal

## CC(C)C1CC23OC1(O)CC(=CN1CCNCC1)C2CCC3C (centres unmarked) [Compound 8, Curcumol piperazine hydrochloride]
MDCK (dog kidney) cells
  TC50: 192.45 µg/mL
[1]; Table 1
  inhibition at 50 µg/mL: 89.1%
[1]; Table 2 (repeated screening)
  inhibition at 50 µg/mL: 85.2%
[1]; Table 3 (repeated screening)
  inhibition at 50 µg/mL: 86.2%
293 cells; 200 μg/ml
  Cytopathy and cell status, Sample: Good
[2]; [4]
  Inhibition rate (%): 35.6%
  Tumor weight: 2.26 ± 0.33 g
[2]; [5]
  Inhibition rate (%): 54.4%
  Tumor weight: 1.60 ± 0.39 g
[2]; [6]
  Inhibition rate (%): 67.2%
  Tumor weight: 1.15 ± 0.36 g
[2]; [7]
  Inhibition rate (%): 38.8%
  Tumor weight: 2.08 ± 0.33 g
[2]; [8]
  Inhibition rate (%): 55.6%
  Tumor weight: 1.51 ± 0.39 g
[2]; [9]
  Inhibition rate (%): 64.7%
  Tumor weight: 1.20 ± 0.36 g
[2]; [10]
  Inhibition rate (%): 40.1%
  Tumor weight: 2.14 ± 0.33 g
[2]; [11]
  Inhibition rate (%): 54.4%
  Tumor weight: 1.65 ± 0.39 g
[2]; [12]
  Inhibition rate (%): 65.5%
  Tumor weight: 1.25 ± 0.36 g
[2]
  inhibitory effect against mouse grafted uterine cervix cancer U14 (in words): good inhibitory effect
[2]; concentration above 40 mg/kg
  inhibition rate against mouse grafted uterine cervix cancer U14: above 60%
[2]; mouse, in vivo, 10 mg/kg
  Average weight (g)-after administration: 21.5 g
[2]; mouse, in vivo, 20 mg/kg
  Average weight (g)-after administration: 21.9 g
  Average weight(g)-after administration: 20.9 g
[2]; mouse, in vivo, 40 mg/kg
  Average weight (g)-after administration: 21.3 g
[3]; 0.08 μg/ml
  inhibition at 0.08 µg/mL: 9.74%
[3]; 0.40 μg/ml
  inhibition at 0.4 µg/mL: 2.64%
[3]; 2.0 μg/ml
  inhibition at 2 µg/mL: 5.27%
[3]; 10 μg/ml
  inhibition at 10 µg/mL: 0.62%
[3]; [13]
  IC50: > 156 µM
[3]
  inhibition at 50 µg/mL: 1.4%
